Assay results: paper PMC8435237, “Overexpressing the N‐terminus of CATALASE2 enhances plant jasmonic acid biosynthesis and resistance to necrotrophic pathogen Botrytis cinerea B05.10” (Molecular Plant Pathology, 2021)

Columns and labels:
ACX3 = target: T1, ACX3 (Arabidopsis thaliana, UniProt P0CZ23); assay: MALDI-TOF/TOF MS of substrate and product; type: biochemical; conditions: no CAT2; 50 mM KPO4 pH 7.6, 50 µM FAD, 100 µg/ml BSA, 25 °C, 30 min; product Δ2-OPC4-CoA
T1 construct: pET28a (plasmid as in Yuan et al. 2017), purified from E. coli
T1 sequence (P0CZ23 35-675): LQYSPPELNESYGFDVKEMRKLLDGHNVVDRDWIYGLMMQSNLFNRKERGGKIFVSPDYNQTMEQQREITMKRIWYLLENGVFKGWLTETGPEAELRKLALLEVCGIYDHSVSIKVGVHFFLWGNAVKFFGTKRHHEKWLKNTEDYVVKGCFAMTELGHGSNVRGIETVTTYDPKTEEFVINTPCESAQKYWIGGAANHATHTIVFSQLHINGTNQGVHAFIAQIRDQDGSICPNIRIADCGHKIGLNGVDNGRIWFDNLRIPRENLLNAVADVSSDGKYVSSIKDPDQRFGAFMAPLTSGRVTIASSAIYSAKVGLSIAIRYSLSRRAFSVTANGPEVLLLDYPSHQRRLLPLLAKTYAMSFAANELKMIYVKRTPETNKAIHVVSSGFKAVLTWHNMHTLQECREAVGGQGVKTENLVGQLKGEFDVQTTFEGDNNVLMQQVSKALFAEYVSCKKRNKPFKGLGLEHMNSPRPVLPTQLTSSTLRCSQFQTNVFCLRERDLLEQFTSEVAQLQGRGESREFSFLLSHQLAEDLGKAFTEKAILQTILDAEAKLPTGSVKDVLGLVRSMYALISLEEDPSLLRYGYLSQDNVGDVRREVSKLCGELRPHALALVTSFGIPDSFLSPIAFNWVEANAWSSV

ACX2 = target: T2, ACX2 (Arabidopsis thaliana, UniProt O65201); assay: MALDI-TOF/TOF MS of substrate and product; type: biochemical; conditions: no CAT2; 50 mM KPO4 pH 7.6, 50 µM FAD, 100 µg/ml BSA, 25 °C, 30 min; product Δ2-OPC4-CoA
T2 construct: pET28a (plasmid as in Yuan et al. 2017), purified from E. coli
T2 sequence (O65201 50-692): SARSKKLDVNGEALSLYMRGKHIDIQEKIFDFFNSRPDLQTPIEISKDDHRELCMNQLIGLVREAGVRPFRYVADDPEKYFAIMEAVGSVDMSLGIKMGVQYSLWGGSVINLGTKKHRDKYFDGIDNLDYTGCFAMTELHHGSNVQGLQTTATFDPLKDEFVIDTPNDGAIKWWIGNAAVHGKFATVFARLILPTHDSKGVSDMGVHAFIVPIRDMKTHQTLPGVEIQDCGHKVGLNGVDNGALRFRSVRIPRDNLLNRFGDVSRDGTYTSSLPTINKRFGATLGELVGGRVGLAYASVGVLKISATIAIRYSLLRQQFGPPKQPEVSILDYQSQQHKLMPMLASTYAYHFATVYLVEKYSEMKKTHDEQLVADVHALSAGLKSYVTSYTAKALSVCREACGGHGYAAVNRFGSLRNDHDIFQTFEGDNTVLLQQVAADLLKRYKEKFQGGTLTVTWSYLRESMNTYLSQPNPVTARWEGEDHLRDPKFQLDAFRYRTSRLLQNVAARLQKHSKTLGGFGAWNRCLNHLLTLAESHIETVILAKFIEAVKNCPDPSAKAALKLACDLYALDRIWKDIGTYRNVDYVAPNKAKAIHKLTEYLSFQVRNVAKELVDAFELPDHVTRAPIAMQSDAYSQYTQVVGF

## CC/C=C\C[C@@H]1C(=O)CC[C@@H]1CCCC(=O)SCCNC(=O)CCNC(=O)[C@H](O)C(C)(C)COP(=O)(O)OP(=O)(O)OC[C@H]1O[C@@H](n2cnc3c(N)ncnc32)[C@H](O)[C@@H]1OP(=O)(O)O [OPC4‐CoA]
ACX3
  MALDI-TOF/TOF MS of substrate and product: The enzymatic activities of ACX2 and ACX3 were assessed with OPC4‐CoA as the substrate
ACX2
  MALDI-TOF/TOF MS of substrate and product: The enzymatic activities of ACX2 and ACX3 were assessed with OPC4‐CoA as the substrate
